Results taken from US20200024246A1, “POGOSTONE DERIVATIVES AND METHODS OF USING THE SAME” (Hamyard Associates LLC, priority 2018, published 2020).
“Also recorded” adds a separate entry of the source.

Experiments:
[1] = tested on: Pyrethroid-resistant strain of Aedes aegypti (Puerto Rican strain); assay: Toxicity to insecticide-resistant mosquitoes (FIG. 1); conditions: dose response curves FIG. 1
adult, female mosquitoes = assay: Topical application on adult female mosquitoes (24-h mortality, 1-h knockdown); type: in vivo, mosquito
[2] = tested on: Dandelion (Taraxacum officinale); assay: Soil drench herbicidal test, dandelion; type: in vivo; conditions: 40 mL of 0.5% soil drench, FIG. 12; words
Procedure: (§1) Dandelion (Taraxacum officinale) seeds were obtained from the Department of Agronomy at Iowa State University. Individual seeds were sown for each pot (6″ wide×4.5″ deep) with approximately 800 mL of soil for each plan. Only plants that germinated were used for the study. Plants were treated 1-2 weeks post emergence. Plants were watered every 2-3 days as needed. Giant foxtail (Setaria faberi) seeds were obtained from the Department of Agronomy at Iowa State University. Three seeds were sown for each pot (6″ wide×4.5″ deep) with approximately 800 mL of soil for each plan. Only plants that germinated were used for the study. Plants were treated 1-2 weeks post emergence. Plants were watered every 2-3 days as needed.
Formulations of the various active ingredients were created using the disclosed pogostone derivatives and Triton-X 100 to aid in the solvation of the active ingredient. Formulations consisted of 0.5% active ingredient by weight. […] 40 mL of formulation ([…] active ingredient) was applied to each pot containing approximately 3-5 plants per pot at 2-3 weeks after emergence. Observations were performed 3 days and 2 weeks after soil drench to determine the effects of the treatments on the various types and stages of plants. […]

adult house flies = assay: Topical application of pogostone derivatives with PBO or plant essential oil on house flies; type: in vivo, house fly; conditions: house flies
Procedure: Combinations of select pogostone derivatives with select concentrations of PBO or plant essential oils was performed. […] Synergists were applied as a subsequent application directly after the application of pogostone derivatives. Concentrations of synergists (plant oils or PBO) were chosen that produced no mortality at 24 hours when applied alone.
To assess the ability of PBO to increase the toxicity of a wide variety of pogostone derivatives, PBO and the pogostone derivatives were applied in combination to the pronotum of house flies.
Finally, the potential of plant essential oils to synergize the effect of Formula 30 was assessed.

[3] = tested on: Western corn rootworm larvae; assay: Seed treatment testing: rootworm survival (FIG. 2A); type: in vivo; conditions: seeds coated with compound; 1 week after introduction of larvae
Procedure: (§2) Corn seeds used were a non-transgenic type strain of corn to prevent confounding results. Germination typically occurred between 2-4 days after moistening.
(§3) Seed coating was accomplished by placing 20 g of corn seeds or soybeans into a container with approximately 1 mL of a 1:5 Elmer's glue:water solution with a small amount of Triton-X100™ (present 100 μL/5 mL). For solid compounds, 0.25 g of compound was subsequently introduced into the container. This mixture of seeds, Elmer's Glue/water/Triton-X 100™ solution, and active compound was mixed thoroughly until seeds were coated with the active ingredient.
(§4) For each treatment, 0.25 g of liquid compound was dissolved in 5 mL of hexane. 0.25 g of Hi-Sil 233 silica gel was introduced into this mixture of hexane and active ingredient. The solvent was blown-off using a rotary evaporator, allowing for the compound to adsorb to the silica gel. This 0.5 g of silica gel:active ingredient was then used as the solid material used for coating the seeds. The seeds were then coated with the same method used for solid compound.
(§5) Three corn seeds coated in pogostone derivative treatments were germinated in small, 2-oz. […] Germination of seedlings was also recorded at the end of the assay by counting the total number of seeds that produced roots out of the 3 seeds in each container/replicate and recorded as total percentage germination. […]

[4] = tested on: Giant foxtail (Setaria faberi); assay: Soil drench herbicidal test, foxtail; type: in vivo; conditions: for % mortality: Foxtail, Rep 1 and 2
Procedure: as §1
Formulations of the various active ingredients were created using the disclosed pogostone derivatives and Triton-X 100 to aid in the solvation of the active ingredient. Formulations consisted of 0.5% active ingredient by weight. […] 40 mL of formulation (either […] active ingredient) was applied to each pot containing approximately 3-5 plants per pot at 2-3 weeks after emergence. Observations were performed 3 days and 2 weeks after soil drench to determine the effects of the treatments on the various types and stages of plants. Phytotoxicity is reported as percentage of total plants treated compared to a control treatment that was exposed to a similar formulation (without the active monoterpenoid derivatives). Technical grade 2,4-dichlorophenoxyacetic acid (2,4-D) was used as the commercial comparison for phytotoxicity. For its solvation, potassium hydroxide was introduced at a 1:1 molar ratio with 2,4-D to ensure this molecule would adequately dissolve in water.

German roaches = assay: Spray-cup testing, German roaches (FIG. 3b); type: in vivo, German roach; conditions: Formula 13 2.5% w/v in water vs thymol 2.5% or 10% w/v
Procedure: (§6) 10 adults of various arthropod species used for this characterization were placed into 8 oz. ice cream cups with tulle placed over the top to prevent the escape of arthropods from the container. Test formulations were added to spray bottles ([…]™) and applied at the same distance and spray number to eliminate variation between manufacturer spray bottles. For all experiments, spray bottles were set to mist in order to prevent excess formulation from accumulating in the cups. […] Mortality was recorded at 1 min, 5 min, 10 min, 15 min, 30 min, 4 hours, and 8 hours for each replicate. A minimum of 3 replicates of 10 arthropods/cup/replicate were performed for each formulation. Data was modeled using a logarithmic regression to show the speed-to-kill of each formulation and highlight differences among treatment groups. Different spray amounts were used for each arthropod, depending on susceptibility, e.g.:
German roaches=10 sprays, 3 in […]

house flies = assay: Topical application on house flies; conditions: House Fly Toxicity; topical
maize weevils = assay: Spray-cup testing, maize weevils (FIG. 3c); type: in vivo, maize weevil; conditions: Formula 13 2.5% w/v in water vs thymol 2.5% or 10% w/v
Procedure: as §6
Maize weevils=8 sprays, 3 in […]

corn seeds = assay: Seed treatment testing: survival/germination of treated corn seeds (FIG. 2B); type: in vivo; conditions: seeds coated with compound; 1 week after introduction of larvae
Procedure: as §2, §3, §4, §5

SMILES: CC(C)CCC(=O)c1c(O)c2ccccc2oc1=O [Formula 13]
- insecticidal capacity compared with natural pyrethrins [1]: outperformed natural pyrethrins
- ED50 (adult, female mosquitoes; topical, 1 h, read-out: KD50 (ug/g mosquito)): 182 mg/kg
- LD50 (adult, female mosquitoes; topical, 24 h, read-out: LD50 (ug/g mosquito)): 119 mg/kg
- insecticidal properties compared with natural pogostone, natural pyrethrins or terpenoids (adult, female mosquitoes; words, refers to Table 1): possessed better insecticidal properties than natural pogostone
- phytotoxicity in dandelion [2]: little phytotoxicity
- SR (synergistic ratio) (adult house flies; LD50 alone versus in combination with PBO): 17.8
- LD50 (adult house flies; topical, derivative alone or in combination with PBO): 5950 µg/g
- western corn rootworm mortality [3]: significant western corn rootworm mortality
- phytotoxicity in foxtail ([4]; 40 mL of 0.5% soil drench, FIG. 12, words): significant phytotoxicity
- % mortality ([4]; 2 weeks after soil drench - 40 mL of 0.5% solution): 100%
- % mortality ([4]; 3 days after soil drench - 40 mL of 0.5% solution): 50%
- efficacy (mortality) compared with thymol (German roaches): outperformed thymol at all time points; also recorded: surpassed the efficacy of thymol at both an equal or higher concentration
- LD50 (ug/g fly) (house flies): 5950 ug/g fly
- efficacy (mortality) compared with thymol (maize weevils): outperformed thymol at all time points; also recorded: performed better than thymol applied at an equal concentration and as well as thymol applied in a 10% concentration
- phytotoxicity to treated corn seeds (corn seeds): did not; also recorded: do not cause phytotoxicity
